Laboratory results reported in patent US20260265244A1, “HETEROCYCLIC COMPOUNDS AS STING ANTAGONISTS” (Boehringer Ingelheim International GmbH, priority 2022, published 2026).

Key:
[1] = molecular target: T1, human STING WT (R232) (Homo sapiens, UniProt Q86WV6, H232R); assay: Human STING HTRF binding assay (competitive, Cisbio 64BDSTGPEG)
T1 construct: purchased Cisbio 64BDSTGPEG
In short: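 Competitive HTRF: 6His-tagged human STING WT R232 binding domain (residues 138-379) with anti-6His Cryptate antibody and d2-labeled STING ligand, 180 min at room temperature, 1% DMSO, 8 concentrations from 10 μM or 1 μM top in ~1:5 steps. HTRF ratios were calibrated to a cGAMP standard curve and IC50 obtained by 4-parameter logistic fit.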

[2] = molecular target: T2, cGAMP binding domain of wild-type (GRR) human STING, residues 155-341 (Homo sapiens, UniProt Q86WV6, H232R); assay: Increase of stability of STING protein against thermal denaturation, Differential Scanning Fluorimetry (DSF)
T2 construct: His-TEV-hSTING (WT); TEV protease cleavage site (N); made in house; host or cells: E. coli BL21 DE3
In short: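 3 µM His-tagged protein with 100 uM compound, 5×SYPRO Orange, 2% DMSO in 20 mM Tris, 150 mM NaCl, pH7.5; 15–95 °C ramp in 0.5 °C steps (15 s/cycle). Tm from Boltzmann fit of the dye melt curve, duplicates averaged, repeated if SD>1.5 °C; ΔTm = Tm with compound minus Tm of protein alone.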

T2 sequence (Q86WV6 with tags, fused parts or gaps H232R): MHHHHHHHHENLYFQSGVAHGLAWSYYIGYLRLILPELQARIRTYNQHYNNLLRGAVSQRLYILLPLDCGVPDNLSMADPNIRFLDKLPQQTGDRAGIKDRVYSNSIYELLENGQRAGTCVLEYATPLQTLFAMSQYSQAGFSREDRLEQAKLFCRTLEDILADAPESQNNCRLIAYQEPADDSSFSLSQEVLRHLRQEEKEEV
T1 sequence (Q86WV6 138-379 H232R): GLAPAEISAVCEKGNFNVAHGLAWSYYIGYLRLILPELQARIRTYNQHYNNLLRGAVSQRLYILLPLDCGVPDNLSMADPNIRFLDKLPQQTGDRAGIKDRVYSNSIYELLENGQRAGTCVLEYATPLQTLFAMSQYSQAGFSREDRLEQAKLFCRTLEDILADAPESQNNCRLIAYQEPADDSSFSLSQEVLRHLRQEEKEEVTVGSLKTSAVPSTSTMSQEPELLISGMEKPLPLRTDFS

Row | IC50 [1] [nM] | DSF [2] [K] | Structure (SMILES)
1 | 21 | 27 | CNc1nc2nn(C)cc2cc1-n1nc(-c2cccc3nn(C[C@H](O)c4ccccc4)cc23)c(C(C)C)c1C [Example 84, (1R)-2-(4-{5-methyl-1-[2-methyl-6-(methylamino)-2H-pyrazolo[3,4-b]pyridin-5-yl]-4-(propan-2-yl)-1H-pyrazol-3-yl}-2H-indazol-2-yl)-1-phenylethan-1-ol]
2 | 15.9 | 23 | COCCO[C@@H](Cn1cc2c(-c3nn(-c4cc5cn(C)nc5nc4C)c(C)c3C(C)C)cccc2n1)c1ccccc1 [Example 85, 4-(1-{2,6-dimethyl-2H-pyrazolo[3,4-b]pyridin-5-yl}-5-methyl-4-(propan-2-yl)-1H-pyrazol-3-yl)-2-[(2R)-2-(2-methoxyethoxy)-2-phenylethyl]-2H-indazole]
3 | 7.6 | 29 | Cn1cc([C@@H](O)Cn2cc3c(-c4nc(-c5cc6cn(C)nc6nc5C5CC5)n(C)c4C4CC4)cccc3n2)cn1 [Example 91, (1R)-2-[4-(5-cyclopropyl-2-{6-cyclopropyl-2-methyl-2H-pyrazolo[3,4-b]pyridin-5-yl}-1-methyl-1H-imidazol-4-yl)-2H-indazol-2-yl]-1-(1-methyl-1H-pyrazol-4-yl)ethan-1-ol]
4 | 11.4 | 24 | Cc1nc2nn(C)cc2cc1-n1nc(-c2cccc3nn(C[C@H](O)c4ccccc4)cc23)c(C(C)CO)c1C (stereo partly drawn) [Example 95, 2-(1-{2,6-dimethyl-2H-pyrazolo[3,4-b]pyridin-5-yl}-3-{2-[(2R)-2-hydroxy-2-phenylethyl]-2H-indazol-4-yl}-5-methyl-1H-pyrazol-4-yl)propan-1-ol]
5 | 97.9 | 25 | Cc1nc2nn(C)cc2cc1-n1nc(-c2cccc3nn(CC(O)c4ccc(Br)cc4)cc23)c(C(C)C)c1C (centres unmarked) [Example 88, 1-(4-Bromophenyl)-2-[4-(1-{2,6-dimethyl-2H-pyrazolo[3,4-b]pyridin-5-yl}-5-methyl-4-(propan-2-yl)-1H-pyrazol-3-yl)-2H-indazol-2-yl]ethan-1-ol]
6 | 17.2 | 24 | Cc1c(C(C)C)c(-c2cccc3nn(C[C@H](O)c4ccccc4)cc23)nn1-c1cc2cn(C)nc2nc1C(C)(C)O [Example 89, 2-[5-(3-{2-[(2R)-2-hydroxy-2-phenylethyl]-2H-indazol-4-yl}-5-methyl-4-(propan-2-yl)-1H-pyrazol-1-yl)-2-methyl-2H-pyrazolo[3,4-b]pyridin-6-yl]propan-2-ol]
7 | 17.4 | 26 | CCc1c(-c2cccc3nn(C[C@H](O)c4ccccc4)cc23)nn(-c2cc3cn(C)nc3nc2C)c1CC [Example 93, (1R)-2-[4-(1-{2,6-dimethyl-2H-pyrazolo[3,4-b]pyridin-5-yl}-4,5-diethyl-1H-pyrazol-3-yl)-2H-indazol-2-yl]-1-phenylethan-1-ol]
8 | 4.3 | 24 | Cc1nc2nn(C)cc2cc1-n1nc(-c2cccc3nn(C[C@H](O)c4ccccc4)cc23)c(C2(C)CC2)c1C [Example 92, (1R)-2-[4-(1-{2,6-Dimethyl-2H-pyrazolo[3,4-b]pyridin-5-yl}-5-methyl-4-(1-methylcyclopropyl)-1H-pyrazol-3-yl)-2H-indazol-2-yl]-1-phenylethan-1-ol]
9 | 17.1 | 27 | Cc1c(-n2nc(-c3cccc4nn(C[C@H](O)c5ccccc5)cc34)c(C(C)C)c2C)ccn2c(C)cnc12 [Example 94, (1R)-2-[4-(1-{3,8-dimethylimidazo[1,2-a]pyridin-7-yl}-5-methyl-4-(propan-2-yl)-1H-pyrazol-3-yl)-2H-indazol-2-yl]-1-phenylethan-1-ol]
10 | 19.9 | 29 | Cn1cc2cc(-c3nc(-c4cccc5nn(C[C@H](O)c6ccc(OCC#N)cc6)cc45)c(C4CC4)n3C)c(C3CC3)nc2n1 [Example 90, 2-{4-[(1R)-2-[4-(5-cyclopropyl-2-{6-cyclopropyl-2-methyl-2H-pyrazolo[3,4-b]pyridin-5-yl}-1-methyl-1H-imidazol-4-yl)-2H-indazol-2-yl]-1-hydroxyethyl]phenoxy} acetonitrile]
11 | 20.2 | 24 | Cc1c(C(C)C)c(-c2cccc3nn(C[C@H](O)c4ccccc4)cc23)nn1-c1cc2cn(C)nc2nc1N(C)C [Example 87, (1R)-2-(4-{1-[6-(dimethylamino)-2-methyl-2H-pyrazolo[3,4-b]pyridin-5-yl]-5-methyl-4-(propan-2-yl)-1H-pyrazol-3-yl}-2H-indazol-2-yl)-1-phenylethan-1-ol]
12 | 6.9 | 28 | Cc1c(-n2nc(-c3cccc4nn(C[C@H](O)c5ccccc5)cc34)c(C(C)C)c2C)ccn2c(C)nnc12 [Example 86, (1R)-2-[4-(1-{3,8-dimethyl-[1,2,4]triazolo[4,3-a]pyridin-7-yl}-5-methyl-4-(propan-2-yl)-1H-pyrazol-3-yl)-2H-indazol-2-yl]-1-phenylethan-1-ol]

More lines, now with the values behind:

Row | Structure (SMILES) | IC50 [1] [nM] | DSF [2] [K]
13 | Cc1c(C(C)C)c(-c2cccc3nn(C[C@H](O)c4ccccc4)cc23)nn1-c1ccn2c(C(F)F)nnc2c1C1CC1 [Example 76] | 17.4 | 26
14 | Cc1nc2nn(C)cc2cc1-n1nc(-c2cccc3nn(C[C@H](OCCF)c4ccccc4)cc23)c(C(C)C)c1C [Example 78, 4-(1-{2,6-dimethyl-2H-pyrazolo[3,4-b]pyridin-5-yl}-5-methyl-4-(propan-2-yl)-1H-pyrazol-3-yl)-2-[(2R)-2-(2-fluoroethoxy)-2-phenylethyl]-2H-indazole] | 16.7 | 24
15 | CCCO[C@@H](Cn1cc2c(-c3nn(-c4cc5cn(C)nc5nc4C)c(C)c3C(C)C)cccc2n1)c1ccccc1 [Example 81, 4-(1-{2,6-dimethyl-2H-pyrazolo[3,4-b]pyridin-5-yl}-5-methyl-4-(propan-2-yl)-1H-pyrazol-3-yl)-2-[(2R)-2-phenyl-2-propoxyethyl]-2H-indazole] | 31.1 | 22
16 | COC(C)c1nc2nn(C)cc2cc1-n1nc(-c2cccc3nn(C[C@H](O)c4ccccc4)cc23)c(C(C)C)c1C (some centres unmarked) [Example 75] | 9.8 | 28
17 | Cc1cc([C@@H](O)Cn2cc3c(-c4nn(-c5cc6cn(C)nc6nc5C)c(C)c4C(C)C)cccc3n2)ccn1 [Example 82, (1R)-2-[4-(1-{2,6-dimethyl-2H-pyrazolo[3,4-b]pyridin-5-yl}-5-methyl-4-(propan-2-yl)-1H-pyrazol-3-yl)-2H-indazol-2-yl]-1-(2-methylpyridin-4-yl)ethan-1-ol] | 3.2 | 27
18 | Cc1c(C(C)C)c(-c2cccc3nn(C[C@H](O)c4ccccc4)cc23)nn1-c1cc2cn(C)nc2nc1C1(C)CC1 [Example 80, (1R)-2-(4-{5-methyl-1-[2-methyl-6-(1-methylcyclopropyl)-2H-pyrazolo[3,4-b]pyridin-5-yl]-4-(propan-2-yl)-1H-pyrazol-3-yl}-2H-indazol-2-yl)-1-phenylethan-1-ol] | 17.5 | 26
19 | C=CCO[C@@H](Cn1cc2c(-c3nn(-c4cc5cn(C)nc5nc4C)c(C)c3C(C)C)cccc2n1)c1ccccc1 [Example 79, 4-(1-{2,6-dimethyl-2H-pyrazolo[3,4-b]pyridin-5-yl}-5-methyl-4-(propan-2-yl)-1H-pyrazol-3-yl)-2-[(2R)-2-phenyl-2-(prop-2-en-1-yloxy)ethyl]-2H-indazole] | 20.1 | 23
20 | [2H][C@](O)(Cn1cc2c(-c3nn(-c4cc5cn(C)nc5nc4C)c(C)c3C(C)C)cccc2n1)c1ccccc1 [Example 3, (1R)-2-[4-(1-{2,6-dimethyl-2H-pyrazolo[3,4-b]pyridin-5-yl}-5-methyl-4-(propan-2-yl)-1H-pyrazol-3-yl)-2H-indazol-2-yl]-1-phenyl(1-^2H)ethan-1-ol] | 5.1 | 28
21 | Cc1nc2nn(C)cc2cc1-n1nc(-c2cccc3nn(CC(O)C4CCCCC4)cc23)c(C(C)C)c1C (centres unmarked) [Example 83, 1-cyclohexyl-2-[4-(1-{2,6-dimethyl-2H-pyrazolo[3,4-b]pyridin-5-yl}-5-methyl-4-(propan-2-yl)-1H-pyrazol-3-yl)-2H-indazol-2-yl]ethan-1-ol] | 23.7 | 24
22 | Cc1nc2nn(C)cc2cc1-n1nc(-c2cccc3nn(C[C@H](OCCC(C)(C)O)c4ccccc4)cc23)c(C(C)C)c1C [Example 74, 4-[(1R)-2-[4-(1-{2,6-dimethyl-2H-pyrazolo[3,4-b]pyridin-5-yl}-5-methyl-4-(propan-2-yl)-1H-pyrazol-3-yl)-2H-indazol-2-yl]-1-phenylethoxy]-2-methylbutan-2-ol] | 16.9 | 25
